From ChEMBL document CHEMBL3585283, “Synthesis and evaluation of a series of quinolinyl trans-cyanostilbene analogs as anticancer agents” (2014)
Active and inactive are the calls of the source. The rule behind the calls is not given here.

Tests used:
MDA-MB-435 = experiment: Antitumor activity against human MDA-MB-435 cells after 48 hrs; format: functional; conditions: MDA-MB-435, 48 h
[1] = Antitumor activity against human SF295 cells after 48 hrs; format: functional; conditions: SF-295, 48 h
[2] = Antitumor activity against human HOP92 cells after 48 hrs; format: functional; conditions: HOP-92, 48 h
HCT-15 = experiment: Antitumor activity against human HCT15 cells after 48 hrs; format: functional; conditions: HCT-15, 48 h
NCI-H23 = experiment: Antitumor activity against human NCI-H23 cells after 48 hrs; format: functional; conditions: NCI-H23, 48 h
U-251 = experiment: Antitumor activity against human U251 cells after 48 hrs; format: functional; conditions: U-251, 48 h
SK-MEL-5 = experiment: Antitumor activity against human SK-MEL-5 cells after 48 hrs; format: functional; conditions: SK-MEL-5, 48 h
HOP-62 = experiment: Antitumor activity against human HOP62 cells after 48 hrs; format: functional; conditions: HOP-62, 48 h
UO-31 = experiment: Antitumor activity against human UO31 cells after 48 hrs; format: functional; conditions: UO-31, 48 h
NCI-H226 = experiment: Antitumor activity against human NCI-H226 cells after 48 hrs; format: functional; conditions: NCI-H226, 48 h
SNB-75 = experiment: Antitumor activity against human SNB75 cells after 48 hrs; format: functional; conditions: SNB-75, 48 h
DU-145 = experiment: Antitumor activity against human DU145 cells after 48 hrs; format: functional; conditions: DU-145, 48 h
K562 = experiment: Antitumor activity against human K562 cells after 48 hrs; format: functional; conditions: K562, 48 h
SK-MEL-28 = experiment: Antitumor activity against human SK-MEL-28 cells after 48 hrs; format: functional; conditions: SK-MEL-28, 48 h
OVCAR-5 = experiment: Antitumor activity against human OVCAR5 cells after 48 hrs; format: functional; conditions: OVCAR-5, 48 h
MDA-MB-231 = experiment: Antitumor activity against human MDA-MB-231 cells after 48 hrs; format: functional; conditions: MDA-MB-231, 48 h
M14 = experiment: Antitumor activity against human M14 cells after 48 hrs; format: functional; conditions: M14, 48 h
[3] = Antitumor activity against human HCC2998 cells after 48 hrs; format: functional; conditions: HCC 2998, 48 h
[4] = Antitumor activity against human MOLT4 cells after 48 hrs; format: functional; conditions: MOLT-4, 48 h
HT-29 = experiment: Antitumor activity against human HT-29 cells after 48 hrs; format: functional; conditions: HT-29, 48 h
NCI-H522 = experiment: Antitumor activity against human NCI-H522 cells after 48 hrs; format: functional; conditions: NCI-H522, 48 h
[5] = Antitumor activity against human SF539 cells after 48 hrs; format: functional; conditions: SF-539, 48 h
ACHN = experiment: Antitumor activity against human ACHN cells after 48 hrs; format: functional
SR = experiment: Antitumor activity against human SR cells after 48 hrs; format: functional
SW-620 = experiment: Antitumor activity against human SW620 cells after 48 hrs; format: functional
[6] = Antitumor activity against human BT549 cells after 48 hrs; format: functional; conditions: BT-549, 48 h
A549 = experiment: Antitumor activity against human A549 cells after 48 hrs; format: functional; conditions: A549, 48 h
EKVX = experiment: Antitumor activity against human EKVX cells after 48 hrs; format: functional, cell-based
SN12C = experiment: Antitumor activity against human SN12C cells after 48 hrs; format: functional
MDA-MB-468 = experiment: Antitumor activity against human MDA-MB-468 cells after 48 hrs; format: functional; conditions: MDA-MB-468, 48 h
NCI-H460 = experiment: Antitumor activity against human NCI-H460 cells after 48 hrs; format: functional; conditions: NCI-H460, 48 h
MCF7 = experiment: Antitumor activity against human MCF7 cells after 48 hrs; format: functional; conditions: MCF7, 48 h
IGROV-1 = experiment: Antitumor activity against human IGROV1 cells after 48 hrs; format: functional; conditions: IGROV-1, 48 h
SK-MEL-2 = experiment: Antitumor activity against human SK-MEL-2 cells after 48 hrs; format: functional; conditions: SK-MEL-2, 48 h
PC-3 = experiment: Antitumor activity against human PC3 cells after 48 hrs; format: functional; conditions: PC-3, 48 h
T47D = experiment: Antitumor activity against human T47D cells after 48 hrs; format: functional
SK-OV-3 = experiment: Antitumor activity against human SKOV3 cells after 48 hrs; format: functional; conditions: SK-OV-3, 48 h
CCRF-CEM = experiment: Antitumor activity against human CCRF-CEM cells after 48 hrs; format: functional
[7] = Antitumor activity against human COLO205 cells after 48 hrs; format: functional; conditions: COLO 205, 48 h
OVCAR-3 = experiment: Antitumor activity against human OVCAR3 cells after 48 hrs; format: functional; conditions: OVCAR-3, 48 h
SNB-19 = experiment: Antitumor activity against human SNB19 cells after 48 hrs; format: functional; conditions: SNB-19, 48 h
OVCAR-8 = experiment: Antitumor activity against human OVCAR8 cells after 48 hrs; format: functional; conditions: OVCAR-8, 48 h
SF-268 = experiment: Antitumor activity against human SF268 cells after 48 hrs; format: functional; conditions: SF-268, 48 h
[8] = Antitumor activity against human RPMI8226 cells after 48 hrs; format: functional; conditions: RPMI-8226, 48 h
786-0 = experiment: Antitumor activity against human 786-0 cells after 48 hrs; format: functional; conditions: 786-0, 48 h
[9] = Antitumor activity against human LOXIMVI cells after 48 hrs; format: functional; conditions: LOX IMVI
HL-60(TB) = experiment: Antitumor activity against human HL-60(TB) cells after 48 hrs; format: functional; conditions: HL-60, 48 h
CAKI-1 = experiment: Antitumor activity against human Caki1 cells after 48 hrs; format: functional; conditions: CAKI-1, 48 h
HCT-116 = experiment: Antitumor activity against human HCT116 cells after 48 hrs; format: functional; conditions: HCT-116, 48 h
[10] = Antitumor activity against human RXF393 cells after 48 hrs; format: functional; conditions: RXF 393, 48 h
[11] = Antitumor activity against human NCI-ADR-RES cells after 48 hrs; format: functional
A498 = experiment: Antitumor activity against human A498 cells after 48 hrs; format: functional; conditions: A498, 48 h
KM12 = experiment: Antitumor activity against human KM12 cells after 48 hrs; format: functional; conditions: KM12, 48 h
NCI-H322M = experiment: Antitumor activity against human NCI-H322M cells after 48 hrs; format: functional
UACC-62 = experiment: Antitumor activity against human UACC62 cells after 48 hrs; format: functional; conditions: UACC-62, 48 h
Malme-3M = experiment: Antitumor activity against human MALME-3M cells after 48 hrs; format: functional
[12] = Antitumor activity against human Hs578T cells after 48 hrs; format: functional; conditions: Hs-578T
TK-10 = experiment: Antitumor activity against human TK10 cells after 48 hrs; format: functional; conditions: TK-10, 48 h
OVCAR-4 = experiment: Antitumor activity against human OVCAR4 cells after 48 hrs; format: functional; conditions: OVCAR-4, 48 h
UACC-257 = experiment: Antitumor activity against human UACC257 cells after 48 hrs; format: functional; conditions: UACC-257, 48 h

COc1cc(/C(C#N)=C/c2cnc3ccccc3c2)cc(OC)c1OC
GI50 (MDA-MB-435): 227 nM | GI50 [1]: 556 nM | GI50 [2]: 403 nM | GI50 (HCT-15): 1080 nM | GI50 (NCI-H23): 2930 nM | GI50 (U-251): 1700 nM | GI50 (SK-MEL-5): 410 nM | GI50 (HOP-62): 10.3 µM | GI50 (UO-31): 580 nM | GI50 (NCI-H226): > 100 µM | GI50 (SNB-75): 1490 nM | GI50 (DU-145): 1510 nM | GI50 (K562): 444 nM | GI50 (SK-MEL-28): 3270 nM | GI50 (OVCAR-5): 3940 nM | GI50 (MDA-MB-231): 2830 nM | GI50 (M14): 540 nM | GI50 [3]: 2010 nM | GI50 [4]: 3200 nM | GI50 (HT-29): 421 nM | GI50 (NCI-H522): 299 nM | GI50 [5]: 361 nM | GI50 (ACHN): 911 nM | GI50 (SR): 569 nM | GI50 (SW-620): inactive | GI50 [6]: 1430 nM | GI50 (A549): 680 nM | GI50 (EKVX): inactive | GI50 (SN12C): 1940 nM | GI50 (MDA-MB-468): 870 nM | GI50 (NCI-H460): 2050 nM | GI50 (MCF7): 429 nM | GI50 (IGROV-1): 3.15 µM | GI50 (SK-MEL-2): 1050 nM | GI50 (PC-3): 1080 nM | GI50 (T47D): 9.54 µM | GI50 (SK-OV-3): 1340 nM | GI50 (CCRF-CEM): 1380 nM | GI50 [7]: 374 nM | GI50 (OVCAR-3): 263 nM | GI50 (SNB-19): 5230 nM | GI50 (OVCAR-8): 3410 nM | GI50 (SF-268): 9.17 µM | GI50 [8]: 2060 nM | GI50 (786-0): 6.29 µM | GI50 [9]: 645 nM | GI50 (HL-60(TB)): 329 nM | GI50 (CAKI-1): 346 nM | GI50 (HCT-116): 464 nM | GI50 [10]: 579 nM | GI50 [11]: 343 nM | GI50 (A498): 678 nM | GI50 (KM12): 436 nM | GI50 (NCI-H322M): 27.4 µM | GI50 (UACC-62): 478 nM | GI50 (Malme-3M): 691 nM | GI50 [12]: 1310 nM | GI50 (TK-10): 2.55 µM | GI50 (OVCAR-4): 13.8 µM

COc1cc(OC)cc(/C(C#N)=C/c2cnc3ccccc3c2)c1
GI50 (MDA-MB-435): 53 nM | GI50 [1]: 243 nM | GI50 [2]: 3090 nM | GI50 (HCT-15): 455 nM | GI50 (NCI-H23): 747 nM | GI50 (U-251): 374 nM | GI50 (SK-MEL-5): 249 nM | GI50 (HOP-62): 0.793 µM | GI50 (NCI-H226): 62.2 µM | GI50 (SNB-75): 224 nM | GI50 (DU-145): 505 nM | GI50 (K562): 243 nM | GI50 (SK-MEL-28): 1400 nM | GI50 (OVCAR-5): 587 nM | GI50 (MDA-MB-231): 1150 nM | GI50 (M14): 310 nM | GI50 [3]: 1450 nM | GI50 [4]: 378 nM | GI50 (HT-29): 362 nM | GI50 (NCI-H522): 69 nM | GI50 [5]: 289 nM | GI50 (ACHN): 1190 nM | GI50 (SR): inactive | GI50 (SW-620; SW-620, 48 h): 352 nM | GI50 [6]: 388 nM | GI50 (A549): 556 nM | GI50 (EKVX): inactive | GI50 (SN12C): 661 nM | GI50 (MDA-MB-468): 217 nM | GI50 (NCI-H460): 362 nM | GI50 (MCF7): 333 nM | GI50 (IGROV-1): 3.5 µM | GI50 (SK-MEL-2): 709 nM | GI50 (PC-3): 506 nM | GI50 (T47D): 0.628 µM | GI50 (SK-OV-3): 576 nM | GI50 (CCRF-CEM): 332 nM | GI50 [7]: 398 nM | GI50 (OVCAR-3): 279 nM | GI50 (SNB-19): 614 nM | GI50 (OVCAR-8): 584 nM | GI50 (SF-268): 0.654 µM | GI50 (UACC-257): 12.8 µM | GI50 [8]: 332 nM | GI50 (786-0): 0.484 µM | GI50 [9]: 672 nM | GI50 (HL-60(TB)): 234 nM | GI50 (CAKI-1): 223 nM | GI50 (HCT-116): 420 nM | GI50 [10]: 297 nM | GI50 [11]: 224 nM | GI50 (A498): 333 nM | GI50 (KM12): 409 nM | GI50 (NCI-H322M): 0.903 µM | GI50 (UACC-62): 357 nM | GI50 (Malme-3M): 635 nM | GI50 [12]: 715 nM | GI50 (TK-10): 17.7 µM | GI50 (OVCAR-4): 1.73 µM
